Test results published in US20070203057A1, “COMPOUNDS AND METHODS FOR MODULATING ADHESION MOLECULE FUNCTION” (ADHEREX TECHNOLOGIES, INC., priority 1998, published 2007).

Experiments:
N-cadherin [1] = test: Neurite outgrowth of rat neurons on monolayers of 3T3 cells expressing N-cadherin; format: cell-based; settings: for Percent Inhibition of Neurite Outgrowth on 3T3 Cells Expressing N-cadherin: rat neurons, 20 hours
Experimental: (§1) Neurons were cultured on monolayers of 3T3 cells transfected with cDNA encoding N-cadherin essentially as described by Doherty and Walsh, Curr. Op. Neurobiol. 4:49-55, 1994; Williams et al., Neuron 13:583-594, 1994; Hall et al., Cell Adhesion and Commun. 3:441-450, 1996; Doherty and Walsh, Mol. Cell. Neurosci. 8:99-111, 1994; Safell et al., Neuron 18:231-242, 1997. Briefly, monolayers of control 3T3 fibroblasts and 3T3 fibroblasts that express N-cadherin were established by overnight culture of 80,000 cells in individual wells of an 8-chamber well tissue culture slide. 3000 cerebellar neurons isolated from post-natal day 3 mouse brains were cultured for 18 hours on the various monolayers in control media (SATO/2% FCS), or media supplemented with various concentrations of the test peptide to be evaluated. The cultures were then fixed and stained for GAP43 which specifically binds to the neurons and their neurites. The length of the longest neurite on each GAP43 positive neuron was then measured by computer assisted morphometry. For each data point, measurements were made from 100-160 neurons, and the given values show the mean +/− the standard error of the mean.
(§2) The ability of different modulating agents to inhibit neurite outgrowth was also evaluated. […] The peptides were tested at different concentrations. Rat neurons were grown for 20 hours on monolayers of either 3T3 cells, or 3T3 cells expressing N-cadherin. The cultures were then fixed, and the mean neurite length was determined by making measurements on at least 150 neurons for each treatment. The results are presented as the percentage inhibition of neurite outgrowth over 3T3 cells expressing N-cadherin.
Similar experiments, illustrated in Table III, were performed to evaluate the effect of various cyclic peptide modulating agents derived from EC1 of human N-cadherin on neurite outgrowth.
(§3) To further evaluate the specificity of these peptide modulating agents, inhibition of neurite outgrowth was assessed, at 100 μg/ml, on monolayers of 3T3 cells transfected with various molecules responsible for neurite outgrowth. The results, shown in Table IV, illustrate a high level of specificity for N-cadherin mediated neurite outgrowth.
Further experiments were performed as described above to assess the activity of peptide modulating agents derived from EC4 of human N-cadherin.

L1 [2] = target: T1, L1 (Homo sapiens, UniProt P32004); test: Neurite outgrowth over 3T3 cells transfected with L1; format: cell-based, rat; settings: 100 μg/ml
T1 construct: expressed in transfected cells; host or cells: 3T3 cells
Experimental: as §2, §3

NCAM [3] = target: T2, NCAM (Homo sapiens, UniProt P13591); test: Neurite outgrowth over 3T3 cells transfected with NCAM; format: cell-based, rat; settings: 100 μg/ml
T2 construct: expressed in transfected cells; host or cells: 3T3 cells
Experimental: as §2, §3

FGFR = test: Neurite outgrowth over 3T3 cells transfected with FGFR; format: cell-based, rat; settings: 100 μg/ml
Experimental: as §2, §3

[4] = tested on: human ovarian cancer cells (SKOV3); test: Disruption of tumor cell adhesion in SKOV3 monolayer cultures; format: cell-based; settings: 1 mg/mL, 24 hours; FIG. 8B
Description: Within certain cell adhesion assays, the addition of a modulating agent to cells that express a cadherin results in disruption of cell adhesion. A “cadherin-expressing cell,” as used herein, may be any type of cell that expresses at least one cadherin on the cell surface at a detectable level, using standard techniques such as immunocytochemical protocols (e.g., Blaschuk and Farookhi, Dev. Biol. 136:564-567, 1989). Cadherin-expressing cells include endothelial, epithelial and/or cancer cells. For example, such cells may be plated under standard conditions that, in the absence of modulating agent, permit cell adhesion. In the presence of modulating agent (e.g., 500 μg/mL), disruption of cell adhesion may be determined visually within 24 hours, by observing retraction of the cells from one another.
Monolayer cultures of human ovarian cancer cells (SKOV3) were grown in the presence and absence of the peptide N-Ac-INPISGQ-NH2 (SEQ ID NO:22).

L1 [5] = target: T1, L1; test: Neurite outgrowth of mouse cerebellar neurons on monolayers of 3T3 cells expressing L1; format: cell-based; settings: 250 μg/ml; FIG. 6
Experimental: as §1, with “For each data point, measurements were made from 100-160 neurons, and the given values show the mean +/− the standard error of the mean.” left out
(§4) The mean neurite length was further measured for neurons cultured on monolayers of 3T3 cells, 3T3 cells expressing N-cadherin, 3T3 cells expressing NCAM, and 3T3 cells expressing L1 in media containing the linear peptide H-WLKIDPVNGQI-OH (SEQ ID NO:13; designated N-CAD-CHD2) at a concentration of 250 μg/ml. […]

NCAM [6] = target: T2, NCAM; test: Neurite outgrowth of mouse cerebellar neurons on monolayers of 3T3 cells expressing NCAM; format: cell-based; settings: 250 μg/ml; FIG. 6
Experimental: as §1, with “For each data point, measurements were made from 100-160 neurons, and the given values show the mean +/− the standard error of the mean.” left out
as §4

N-cadherin [7] = test: Neurite outgrowth of mouse cerebellar neurons on monolayers of 3T3 cells expressing N-cadherin; format: cell-based
Description: Within a representative neurite outgrowth assay, neurons may be cultured on a monolayer of cells (e.g., 3T3 fibroblasts) that express N-cadherin. […] For example, neurons may be cultured on monolayers of 3T3 cells transfected with cDNA encoding N-cadherin essentially as described by Doherty and Walsh, Curr. Op. Neurobiol. 4:49-55, 1994; Williams et al., Neuron 13:583-594, 1994; Hall et al., Cell Adhesion and Commun. 3:441-450, 1996; Doherty and Walsh, Mol. Cell. Neurosci. 8:99-111, 1994; and Safell et al., Neuron 18:231-242, 1997. Briefly, monolayers of control 3T3 fibroblasts and 3T3 fibroblasts that express N-cadherin may be established by overnight culture of 80,000 cells in individual wells of an 8-chamber well tissue culture slide. […] The length of the longest neurite on each GAP43 positive neuron may be measured by computer assisted morphometry.
Neurons were cultured on monolayers of 3T3 cells transfected with cDNA encoding N-cadherin essentially as described by Doherty and Walsh, Curr. […] 3000 cerebellar neurons isolated from post-natal day 3 mouse brains were cultured for 18 hours on the various monolayers in control media (SATO/2% FCS), or media supplemented with various concentrations of the test peptide to be evaluated. […] The length of the longest neurite on each GAP43 positive neuron was then measured by computer assisted morphometry. […]

N-cadherin-Fc chimera = test: Binding of peptide to flow cell coated with N-cadherin-Fc chimera (human IgG1 control subtracted); settings: 250, 500 or 1000 μg/ml, FIG. 7
Description: As noted above, native HAV-BM sequences, as well as analogues and mimetics thereof, bind to a classical cadherin, preferably within or near an HAV sequence, and modulate a cadherin-mediated response. The ability to bind to a cadherin sequence may generally be evaluated using any binding assay known to those of ordinary skill in the art. For example, a Pharmacia Biosensor machine may be used, as discussed in Jonsson et al., Biotechniques 11:520-27, 1991. A specific example of the technology that measures the interaction of peptides with molecules can be found in Williams et al., J. Biol. Chem. 272:8539-8545, 1997. Real-time BIA (Biomolecular Interaction Analysis) uses the optical phenomenon surface plasmon resonance to monitor biomolecular interactions. […] Binding to the chip is measured in real-time in arbitrary units of resonance (RU). […]
To determine binding, test analytes (e.g., cadherin peptides, such as HAV-containing peptides) may be placed in running buffer and passed simultaneously over test and control flow cells. […] Specific binding to the derivatized sensor chips may be determined automatically by the system by subtraction of […] flow cell responses. […]

[8] = 3 μg/ml, cyclic peptides, Table III
[9] = 10 μg/ml, cyclic peptides, Table III
[10] = 33 μg/ml, cyclic peptides, Table III
[11] = 100 μg/ml, cyclic peptides, Table III
[12] = 11 μg/ml, EC4-derived peptides, Table V

T1 sequence (P32004 20-1257): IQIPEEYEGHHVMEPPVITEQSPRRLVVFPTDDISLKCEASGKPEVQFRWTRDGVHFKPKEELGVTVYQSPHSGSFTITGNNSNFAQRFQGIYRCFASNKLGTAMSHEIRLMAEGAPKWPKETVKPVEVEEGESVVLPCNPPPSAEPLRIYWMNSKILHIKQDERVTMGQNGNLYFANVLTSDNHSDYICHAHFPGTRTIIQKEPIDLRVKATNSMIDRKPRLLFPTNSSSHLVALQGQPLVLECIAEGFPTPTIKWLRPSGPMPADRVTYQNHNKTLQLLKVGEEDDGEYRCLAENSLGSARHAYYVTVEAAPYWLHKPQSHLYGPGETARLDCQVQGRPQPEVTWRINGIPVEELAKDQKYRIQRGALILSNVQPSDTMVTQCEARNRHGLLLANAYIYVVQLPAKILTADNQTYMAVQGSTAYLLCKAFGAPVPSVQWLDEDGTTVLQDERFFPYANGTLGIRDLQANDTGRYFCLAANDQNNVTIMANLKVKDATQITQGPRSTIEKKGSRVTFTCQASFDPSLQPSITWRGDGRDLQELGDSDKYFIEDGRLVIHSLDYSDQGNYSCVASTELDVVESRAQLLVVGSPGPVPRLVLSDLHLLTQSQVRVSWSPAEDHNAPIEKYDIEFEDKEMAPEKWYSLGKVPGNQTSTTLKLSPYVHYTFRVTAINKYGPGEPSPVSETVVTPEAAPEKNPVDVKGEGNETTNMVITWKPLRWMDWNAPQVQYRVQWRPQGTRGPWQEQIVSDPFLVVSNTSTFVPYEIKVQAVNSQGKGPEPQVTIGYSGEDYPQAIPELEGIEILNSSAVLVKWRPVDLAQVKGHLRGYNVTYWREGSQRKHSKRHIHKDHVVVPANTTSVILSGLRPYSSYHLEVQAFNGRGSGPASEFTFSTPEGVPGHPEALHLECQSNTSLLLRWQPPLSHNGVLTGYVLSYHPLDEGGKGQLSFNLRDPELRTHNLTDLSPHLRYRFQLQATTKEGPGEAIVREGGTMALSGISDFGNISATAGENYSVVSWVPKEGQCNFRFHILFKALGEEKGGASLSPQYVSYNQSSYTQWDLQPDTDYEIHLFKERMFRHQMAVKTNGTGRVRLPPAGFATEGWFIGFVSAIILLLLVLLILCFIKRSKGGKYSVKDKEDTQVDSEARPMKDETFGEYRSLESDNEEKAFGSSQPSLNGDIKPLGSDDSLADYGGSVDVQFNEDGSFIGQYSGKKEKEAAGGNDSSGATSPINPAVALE
T2 sequence (P13591 20-858, species assumed): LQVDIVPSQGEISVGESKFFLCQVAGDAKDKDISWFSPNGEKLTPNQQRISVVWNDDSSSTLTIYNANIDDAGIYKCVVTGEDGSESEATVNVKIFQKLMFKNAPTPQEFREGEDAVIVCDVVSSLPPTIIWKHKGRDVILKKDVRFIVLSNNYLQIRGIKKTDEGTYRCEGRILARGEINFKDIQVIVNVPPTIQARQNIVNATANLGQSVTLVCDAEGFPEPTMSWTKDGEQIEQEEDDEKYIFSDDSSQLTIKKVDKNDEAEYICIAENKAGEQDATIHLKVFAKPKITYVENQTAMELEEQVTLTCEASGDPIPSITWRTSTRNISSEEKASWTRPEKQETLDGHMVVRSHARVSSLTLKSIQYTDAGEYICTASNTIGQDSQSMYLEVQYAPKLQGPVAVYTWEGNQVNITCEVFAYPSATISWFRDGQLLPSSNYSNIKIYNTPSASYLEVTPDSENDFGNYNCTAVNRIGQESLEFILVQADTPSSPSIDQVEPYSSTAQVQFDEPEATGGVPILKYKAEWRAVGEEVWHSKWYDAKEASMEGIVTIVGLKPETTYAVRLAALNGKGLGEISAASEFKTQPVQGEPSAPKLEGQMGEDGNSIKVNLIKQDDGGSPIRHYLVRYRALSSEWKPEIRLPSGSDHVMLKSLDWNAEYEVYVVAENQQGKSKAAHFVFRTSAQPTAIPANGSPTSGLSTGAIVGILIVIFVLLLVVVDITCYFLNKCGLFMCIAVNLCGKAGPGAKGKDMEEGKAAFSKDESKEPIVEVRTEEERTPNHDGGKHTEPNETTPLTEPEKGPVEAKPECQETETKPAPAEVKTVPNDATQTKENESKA

Substance: N-Ac-INAISGQ-NH2 [control peptide with change in a specific amino acid]
- Percent Inhibition of Neurite Outgrowth on 3T3 Cells Expressing N-cadherin (N-cadherin [1]; 33 μg/ml): 12.3 ± 6.2%

Substance: Ac-CINPIC-NH2 (cysteine pairing not given here)
- Percent Inhibition of Neurite Outgrowth (N-cadherin [1]; [8]): 7.5 ± 3.2%
- Percent Inhibition of Neurite Outgrowth (N-cadherin [1]; [9]): 31.5 ± 7.5%
- Percent Inhibition of Neurite Outgrowth (N-cadherin [1]; [10]): 56.2 ± 6.9%
- Percent Inhibition of Neurite Outgrowth over 3T3 Cells Expressing N-cadherin (N-cadherin [1]; 100 μg/ml, Table IV): 94.5 ± 10.5%
- Percent Inhibition of Neurite Outgrowth (N-cadherin [1]; [11]): 94.5 ± 10.5%
- EC50 (N-cadherin [1]; cyclic peptides, Table III): 38.2 µM
- Percent Inhibition of Neurite Outgrowth over 3T3 Cells Expressing L1 (L1 [2]): 7.8 ± 3.8%
- Percent Inhibition of Neurite Outgrowth over 3T3 Cells Expressing NCAM (NCAM [3]): 13.7 ± 7.1%

Substance: N-Ac-INPISGQ-NH2 [linear peptide derived from EC1 of human N-cadherin]
- Percent Inhibition of Neurite Outgrowth on 3T3 Cells Expressing N-cadherin (N-cadherin [1]; 3 μg/ml): 19.5 ± 4.3%
- Percent Inhibition of Neurite Outgrowth on 3T3 Cells Expressing N-cadherin (N-cadherin [1]; 10 μg/ml): 47.8 ± 4.1%
- Percent Inhibition of Neurite Outgrowth on 3T3 Cells Expressing N-cadherin (N-cadherin [1]; 33 μg/ml): 73.0 ± 4.6%
- Percent Inhibition of Neurite Outgrowth over 3T3 Cells Expressing L1 (L1 [2]): 0.3 ± 1.8%
- Percent Inhibition of Neurite Outgrowth over 3T3 Cells Expressing FGFR (FGFR): 1.9 ± 5.1%
- Percent Inhibition of Neurite Outgrowth over 3T3 Cells Expressing NCAM (NCAM [3]): 6.2 ± 3.0%
- Disruption of SKOV3 cell adhesion (morphology) [4]: retract from one another and round-up

Substance: H-WLKIDPVNGQI-OH
- Inhibition of neurite outgrowth on 3T3 cells expressing L1 (L1 [5]): Only neurite outgrowth on 3T3 cells expressing N-cadherin was inhibited
- Inhibition of neurite outgrowth on 3T3 cells expressing NCAM (NCAM [6]): Only neurite outgrowth on 3T3 cells expressing N-cadherin was inhibited
- Inhibition of neurite outgrowth on 3T3 cells expressing N-cadherin (N-cadherin [7]; 250 μg/ml, FIG. 6): inhibited
- Inhibition of the N-cadherin neurite outgrowth response (N-cadherin [7]; 125 and 250 μg/ml, FIG. 5): fully inhibited
- Binding to N-cadherin-Fc chimera coated flow cell (N-cadherin-Fc chimera): association of the peptide to the flow cell coated with the N-cadherin Fc chimera

Substance: N-Ac-CIDPVNC-NH2 (also: cyclic, type of ring not given here) [cyclic peptide comprising IDPVN, from EC4 of human N-cadherin]
- Percent Inhibition of Neurite Outgrowth (N-cadherin [1]; [12]): 15.4 ± 8.9%

Substance: Ac-CINPISC-NH2 (cysteine pairing not given here)
- Percent Inhibition of Neurite Outgrowth (N-cadherin [1]; [9]): 21.8 ± 1.2%
- Percent Inhibition of Neurite Outgrowth (N-cadherin [1]; [10]): 39.5 ± 4.3%
- Percent Inhibition of Neurite Outgrowth (N-cadherin [1]; [11]): 73.4 ± 2.2%
- EC50 (N-cadherin [1]; cyclic peptides, Table III): 38.1 µM

Substance: N-Ac-CINPC-NH2
- Percent Inhibition of Neurite Outgrowth (N-cadherin [1]; [8]): 17.4 ± 5.7%
- Percent Inhibition of Neurite Outgrowth (N-cadherin [1]; [9]): 51.9 ± 2.5%
- Percent Inhibition of Neurite Outgrowth (N-cadherin [1]; [10]): 71.0 ± 6.5%
- Percent Inhibition of Neurite Outgrowth (N-cadherin [1]; [11]): 98.1 ± 8.2%
- EC50 (N-cadherin [1]; cyclic peptides, Table III): 14.3 µM

Substance: N-Ac-IDPVNGQ-NH2 [peptide derived from EC4 of human N-cadherin]
- Percent Inhibition of Neurite Outgrowth (N-cadherin [1]; [12]): 0.6 ± 10.0%
